Ten compounds from US20070173522A1, “4-(2-Phenylsulfanyl-phenyl)-1,2,3,6- tetrahydropyridine derivatives as serotonin reuptake inhibitors” (priority 2003, published 2007) can be followed below.

Test [1] deals with T1, serotonin reuptake (5-HT uptake into rat cortical synaptosomes) (Rattus norvegicus, UniProt P31652).
T1 construct: Whole brains from male Wistar rats (125-225 g), excluding cerebellum, are homogenized; from tissue; host or cells: synaptosomal preparation from whole brain (excluding cerebellum) of male Wistar rats
The test can be described thus: Measurements of [3H]-5-HT uptake into rat cortical synaptosomes. It counts as biochemical. The settings on record: result in words; test described in the examples section. How it is done:
Measurements of [^3]-5-HT Uptake into Rat Cortical Synaptosomes.
Whole brains from male Wistar rats (125-225 g), excluding cerebellum, are homogenized in 0.32 M sucrose supplemented with 1 mM nialamid with a glass/teflon homogenizer. The homogenate is centrifuged at 600×g for 10 mil at 4° C. The pellet is discarded and the supernatant is centrifuged at 20.000×g for 55 min. The final pellet is homogenized (20 sec) in this assay buffer (0.5 mg original tissue/well). Test compounds (or buffer) and 10 nM [^3H]-5-HT are added to 96 well plates and shaken briefly. Composition of assay buffer: 123 mM NaCl, 4.82 mM KCl, 0.973 mM CaCl2, 1.12 mM MgSO4, 12.66 mM Na2HPO4, 2.97 mM NaH2PO4, 0.162 mM EDTA, 10 mM glucose and 1 mM ascorbic acid. Buffer is oxygenated with 95% O2/5% CO2 for 10 min at 37° C. and pH is adjusted 7.4. The incubation is started by adding tissue to a final assay volume of 0.2 mL. After 15 min incubation with radioligand at 37° C., samples are filtered directly on Unifilter GF/C glass fiber filters (soaked for 1 hour in 0.1% polyethylenimine) under vacuum and immediately washed with 3×0.2 ml assay buffer. Non-specific uptake is determined using citalopram (10 μM final concentration). Citalopram is included as reference in all experiments as dose-response curve.

In test [2] the target is T2, norepinephrine uptake (noradrenaline uptake into rat cortical synaptosomes) (Rattus norvegicus, UniProt Q63380).
T2 construct: Fresh cortex from male Wistar rats (125-225 g) are homogenized in 0.4M sucrose; from tissue; host or cells: synaptosomal preparation from fresh cortex of male Wistar rats
Nature of the test: Measurements of [3H]noradrenaline uptake into rat cortical synaptosomes. The settings on record: result in words; test described in the examples section. Type of test: biochemical. How it is done:
Measurements of ^3H]Noradrenaline Uptake into Rat Cortical Synaptosomes.
Fresh cortex from male Wistar rats (125-225 g) are homogenized in 0.4M sucrose with a glass/teflon homogenizer. The homogenate is centrifuged at 600×g for 10 min at 4° C. The pellet is discarded and the supernatant is centrifuged at 20.000×g for 55 min. The final pellet is homogenized (20 sec) in this assay buffer (6 mg original tissue/mL=4 mg/well). Test compounds (or buffer) and 10 nM [^3H]-noradrenaline are added to deep 96 well plates and shaken briefly. Composition of assay buffer: 123 mM NaCl, 4.82 mM KCl, 0.973 mM CaCl2, 1.12 mM MgSO4, 12.66 mM Na2HPO4, 2.97 mM NaH2PO4, 0.162 mM EDTA, 10 mM glucose and 1 mM ascorbic acid. Buffer is oxygenated with 95% O2/5% CO2 for 10 min at 37° C. and pH is adjusted 7.4. The incubation is started by adding tissue to a final assay volume of 1 ml. After 15 min incubation with radioligand at 37° C., samples are filtered directly on Unifilter GF/C glass fiber filters (soaked for 1 hour in 0.1% polyethylenimine) under vacuum and immediately washed with 3×1 mL assay buffer. Non-specific uptake is determined using talsupram (10 μM final concentration). Duloxetine is included as reference in all experiments as dose-response curve.

Each structure is given as a SMILES string.

T1 sequence (P31652 whole entry): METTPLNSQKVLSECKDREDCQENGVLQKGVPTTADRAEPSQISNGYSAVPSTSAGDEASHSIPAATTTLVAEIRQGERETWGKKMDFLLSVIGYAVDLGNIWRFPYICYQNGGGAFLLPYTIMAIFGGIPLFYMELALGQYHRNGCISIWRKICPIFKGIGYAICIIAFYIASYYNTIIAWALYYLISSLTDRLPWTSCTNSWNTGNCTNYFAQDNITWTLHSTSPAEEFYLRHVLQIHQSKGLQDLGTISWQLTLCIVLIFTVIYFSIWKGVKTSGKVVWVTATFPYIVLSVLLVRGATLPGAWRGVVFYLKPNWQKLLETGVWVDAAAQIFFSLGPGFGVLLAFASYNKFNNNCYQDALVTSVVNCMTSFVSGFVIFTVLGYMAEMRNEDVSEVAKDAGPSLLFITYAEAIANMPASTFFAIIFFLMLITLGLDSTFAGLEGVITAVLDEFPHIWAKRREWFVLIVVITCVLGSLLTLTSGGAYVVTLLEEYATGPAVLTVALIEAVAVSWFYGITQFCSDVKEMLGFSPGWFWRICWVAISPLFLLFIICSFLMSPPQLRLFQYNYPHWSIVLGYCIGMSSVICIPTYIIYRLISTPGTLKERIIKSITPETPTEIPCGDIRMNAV
T2 sequence (Q63380 1-617): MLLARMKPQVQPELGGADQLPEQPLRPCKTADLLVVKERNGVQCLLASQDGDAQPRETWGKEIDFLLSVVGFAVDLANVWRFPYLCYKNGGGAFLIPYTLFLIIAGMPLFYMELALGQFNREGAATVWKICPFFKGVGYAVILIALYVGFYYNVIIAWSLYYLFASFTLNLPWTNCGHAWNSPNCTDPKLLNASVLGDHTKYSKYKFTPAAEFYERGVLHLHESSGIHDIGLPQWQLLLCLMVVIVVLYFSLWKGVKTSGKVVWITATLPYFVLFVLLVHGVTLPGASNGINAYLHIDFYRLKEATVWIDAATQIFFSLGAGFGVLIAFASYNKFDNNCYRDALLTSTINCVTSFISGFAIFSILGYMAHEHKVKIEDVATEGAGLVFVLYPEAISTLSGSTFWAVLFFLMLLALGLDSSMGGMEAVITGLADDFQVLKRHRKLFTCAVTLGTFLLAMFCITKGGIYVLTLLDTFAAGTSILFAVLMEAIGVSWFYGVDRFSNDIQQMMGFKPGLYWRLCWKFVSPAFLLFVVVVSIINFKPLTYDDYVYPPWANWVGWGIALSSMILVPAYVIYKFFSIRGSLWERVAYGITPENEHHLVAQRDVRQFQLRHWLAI

In the case of `COc1ccc(Sc2ccccc2C2=CCNCC2)c(C)c1` [Compound 37, 4-[2-(4-Methoxy-2-methyl-phenylsulfanyl)-phenyl]-1,2,3,6-tetrahydro-pyridine], the serotonin reuptake inhibition entry in test [1] is “did show serotonin reuptake inhibition”. In addition, the norepinephrine uptake inhibition entry in test [2] is given as “did not show norepinephrine uptake inhibition”.
On the same counts, the results for `Cc1c(F)cccc1Sc1ccccc1C1=CCNCC1` [Compound 87, 4-[2-(3-Fluoro-2-methyl-phenylsulfanyl)-phenyl]-1,2,3,6-tetrahydro-pyridine] are “did show serotonin reuptake inhibition” and “did not show norepinephrine uptake inhibition”.
Taken in the same sequence, the figures for `Cc1cccc(Sc2ccccc2C2=CCNCC2)c1C` [Compound 33, 4-[2-(2,3-Dimethyl-phenylsulfanyl)-phenyl]-1,2,3,6-tetrahydro-pyridine] were “did show serotonin reuptake inhibition” and “did not show norepinephrine uptake inhibition”.
Taken in the same sequence, the figures for `Cc1ccc(Sc2cccc(Cl)c2F)c(C2=CCNCC2)c1` [Compound 86] were “did show serotonin reuptake inhibition” and “did not show norepinephrine uptake inhibition”.
Take `COc1ccc(Sc2ccc(C)cc2C2=CCNCC2)c(F)c1` [Compound 61, 4-[2-(2-Fluoro-4-methoxy-phenylsulfanyl)-5-methyl-phenyl]-1,2,3,6-tetrahydro-pyridine]: the serotonin reuptake inhibition entry in test [1] is recorded as “did show serotonin reuptake inhibition”. The norepinephrine uptake inhibition result in test [2] is listed as “did not show norepinephrine uptake inhibition”.
`Cc1ccc(Sc2cccc(F)c2C)c(C2=CCNCC2)c1` [Compound 89, 4-[2-(3-Fluoro-2-methyl-phenylsulfanyl)-5-methyl-phenyl]-1,2,3,6-tetrahydro-pyridine]: the serotonin reuptake inhibition entry in test [1] was “did show serotonin reuptake inhibition”. Further, the norepinephrine uptake inhibition result in test [2] is recorded as “did not show norepinephrine uptake inhibition”.
For the compound `Cc1ccc(Sc2ccccc2C2=CCNCC2)c(Cl)c1` [Compound 84, 4-[2-(2-Chloro-4-methyl-phenylsulfanyl)-phenyl]-1,2,3,6-tetrahydro-pyridine], the serotonin reuptake inhibition result in test [1] is “did show serotonin reuptake inhibition”. Moreover, the norepinephrine uptake inhibition entry in test [2] is recorded as “did not show norepinephrine uptake inhibition”.
Taken in the same sequence, the figures for `Cc1ccc(Sc2ccc(C)cc2C2=CCNCC2)c(F)c1` [Compound 52, 4-[2-(2-Fluoro-4-methyl-phenylsulfanyl)-5-methyl-phenyl]-1,2,3,6-tetrahydro-pyridine] were “did show serotonin reuptake inhibition” and “did not show norepinephrine uptake inhibition”.
On the same counts, the results for `Fc1cccc(Sc2ccccc2C2=CCNCC2)c1F` [Compound 83, 4-[2-(2,3-Difluoro-phenylsulfanyl)-phenyl]-1,2,3,6-tetrahydro-pyridine] are “did show serotonin reuptake inhibition” and “did not show norepinephrine uptake inhibition”.
On the same counts, the results for `Cc1ccc(Sc2ccc(C)c(F)c2)c(C2=CCNCC2)c1` [Compound 128, 4-[2-(3-Fluoro-4-methyl-phenylsulfanyl)-5-methyl-phenyl]-1,2,3,6-tetrahydro-pyridine] are “did show serotonin reuptake inhibition” and “did not show norepinephrine uptake inhibition”.
